# From patent US20050053580A1, “Use of microbiology non-viral substances for treating acne” (priority 2001, published 2005)
# What was measured:
# androgen receptor = assay: Androgen receptor expression by immunoblotting in SZ95 sebocytes; format: cell-based, human; details: for inhibition of the androgen receptor expression compared to native SZ95 sebocytes: 1.0 μM, after 14 h; for protein expression of the androgen receptor: 0.4 and 1.0 μM, after 24 hours
# SZ95 sebocytes = assay: SZ95 sebocyte proliferation, crystal violet assay; format: cell-based, human; details: for inhibition of the testosterone-induced stimulation of the SZ95 sebocyte proliferation: 10^−7 M testosterone, stimulation period 44 hours; for increase in proliferation: after 72 h, native SZ95 sebocytes
# [1] = 1 μM oligonucleotide, 4 h transfection, 14 h recovery
Compound,inhibition of the androgen receptor expression compared to native SZ95 sebocytes (androgen receptor) [%],protein expression of the androgen receptor (androgen receptor),inhibition of the testosterone-induced stimulation of the SZ95 sebocyte proliferation (SZ95 sebocytes; [1]),further results
5′-CTGCACTTCCATCCTTGAGCTTGGC-3′ [Thioate antisense oligonucleotide],39,reduced protein expression,inhibited,proliferation pattern in the presence of testosterone (SZ95 sebocytes; [1]): same proliferation pattern as native cells
"5′-CTGCCCTTCAATCCCTGAGTTTGGC-3′ (DNA CTGCCCTTCAATCCCTGAGTTTGGC; listed as DNA, chemistry not given here) [mismatch-oligonucleotide, mismatch control oligonucleotide to safeguard antisense specificity, reference compound]",,,,"protein expression of the androgen receptor versus non-transfected cells (androgen receptor; four hours' transfection with DOTAP, recovery phase of at least 24 hours, Western blot): comparable"
"5′-GCCAAGCUCAAGGAUGGAAGUGCAG-3′ (antisense GCCAAGCUCAAGGAUGGAAGUGCAG; 2'-O-methylribose, further chemistry not given here) [methylribosyl antisense oligonucleotide against the androgen receptor]",87,reduced protein expression,highly significant,
"C[C@]12CCC(=O)C[C@@H]1CC[C@@H]1[C@@H]2CC[C@]2(C)[C@@H](O)CC[C@@H]12 [DHT, 5α-dihydrotestosterone, reference compound]",,,,increase in proliferation (SZ95 sebocytes; 10^−7-10^−6 DHT): significant
"C[C@]12CC[C@H]3[C@@H](CCC4=CC(=O)CC[C@@]43C)[C@@H]1CC[C@@H]2O [testosterone, reference compound]",,,,increase in proliferation (SZ95 sebocytes; 10^−7 and 5×10^−7 M testosterone): significant
